# Where a name gives a salt, the structure may show the parent alone.
# Columns and labels:
# DPP IV = target: T1, DPP IV (Mus musculus, UniProt P28843); assay: DPP IV inhibitory activity in vivo: DPP IV activity in plasma of ICR mouse after single oral dose; settings: oral 3 mg/kg, compared with Alogliptin and Vildagliptin (LAF237), FIG. 1-6
# T1 construct: from tissue; host or cells: plasma of ICR mouse
# Method: Animals: ICR mouse (8-10 weeks old; sex: male; 25 g-30 g of body weight, purchased from Shanghai SLAC Laboratory Animal Center).
# Meanwhile the solvent group was used as blank control. The blood was taken from orbital venous plexus of the mouse before administration, and 30, 60, 2 h, 4 h, 6 h, 8 h and […] after administration, respectively and loaded into Eppendorf tube (Qizhong Industrial (Shanghai) co., Ltd.) treated by anticoagulant. The plasma was obtained by centrifugation and DPP IV activity was determined.
# normal ICR mouse = assay: Oral glucose tolerance test (OGTT), acute hypoglycemic effect of single oral dose; assay type: in vivo; settings: single dose 3 mg/kg by gavage, glucose 2.5 g/kg after 6 hours, FIGS. 7-10
# Method: Acute hypoglycemic effect of single dose through mouth on the normal ICR mouse
# Animal: ICR mouse (8-10 weeks old, sex: male, weight: 25-30 g, purchased from Shanghai SLAC Laboratory Animal Center).
# 1. Two days before the experiment, the food consumption was recorded and the daily food consumption of each animal was calculated;
# 2. The animals fasted overnight (⅓ of daily food consumption was provided, about 2 g);
# 3. The blood glucose was measured on the second day.
# 4. The medicament was administrated through gavage (1 mouse/min). After 6 hours, the blood glucose was measured. Glucose was administrated through gavage according to the body weight (2.5 g/kg). The blood glucose value was monitored at 30 min, 60 min, 90 min, and 120 min after administration.
# human DPP 8 = target: T2, human DPP 8 (Homo sapiens, UniProt Q6V1X1); assay: DPP 8 activity screening (Ala-Pro-AMC fluorescence); assay type: biochemical; settings: N.I. = No Inhibition
# T2 construct: made in house; host or cells: insect cells, baculovirus Bac-to-Bac
# T2 sequence (Q6V1X1 whole entry): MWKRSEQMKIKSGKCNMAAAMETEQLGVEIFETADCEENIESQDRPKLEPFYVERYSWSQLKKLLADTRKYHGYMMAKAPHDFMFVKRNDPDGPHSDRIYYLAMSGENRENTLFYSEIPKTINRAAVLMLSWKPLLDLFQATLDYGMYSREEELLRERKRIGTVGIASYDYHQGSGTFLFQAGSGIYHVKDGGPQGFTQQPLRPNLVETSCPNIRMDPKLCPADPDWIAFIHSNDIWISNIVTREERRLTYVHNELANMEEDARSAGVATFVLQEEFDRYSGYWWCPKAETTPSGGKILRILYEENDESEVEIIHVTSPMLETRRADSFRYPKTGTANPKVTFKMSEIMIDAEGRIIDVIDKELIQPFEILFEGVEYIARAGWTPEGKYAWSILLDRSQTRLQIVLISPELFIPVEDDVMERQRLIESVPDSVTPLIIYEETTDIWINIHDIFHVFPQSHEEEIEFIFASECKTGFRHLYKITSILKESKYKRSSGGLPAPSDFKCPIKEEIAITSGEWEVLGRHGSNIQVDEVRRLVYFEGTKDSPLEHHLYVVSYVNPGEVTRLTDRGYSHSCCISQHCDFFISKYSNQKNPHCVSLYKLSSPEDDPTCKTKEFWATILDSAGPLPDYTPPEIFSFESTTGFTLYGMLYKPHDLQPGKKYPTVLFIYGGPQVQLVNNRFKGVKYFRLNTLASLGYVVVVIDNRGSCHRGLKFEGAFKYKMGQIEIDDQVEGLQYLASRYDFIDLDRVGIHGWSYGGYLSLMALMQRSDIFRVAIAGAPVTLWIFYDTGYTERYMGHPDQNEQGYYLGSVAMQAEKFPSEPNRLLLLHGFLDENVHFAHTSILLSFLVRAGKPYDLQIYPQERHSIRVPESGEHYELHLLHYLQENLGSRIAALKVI
# How it was run: (§1)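 Insect-cell baculovirus-expressed human enzymes hydrolyse Ala-Pro-AMC; AMC release monitored kinetically as fluorescence rate (ex 355/em 460 nm). Primary screen at a single concentration (e.g. 20 μg/mL); dose–response fitted to variable-slope sigmoid with bottom/top fixed at 0 and 100.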
# Human DPP 9 = target: T3, Human DPP 9 (Homo sapiens, UniProt Q86TI2); assay: DPP 9 activity screening (Ala-Pro-AMC fluorescence); assay type: biochemical; settings: N.I. = No Inhibition
# T3 construct: made in house; host or cells: insect cells, baculovirus Bac-to-Bac
# T3 sequence (Q86TI2 whole entry): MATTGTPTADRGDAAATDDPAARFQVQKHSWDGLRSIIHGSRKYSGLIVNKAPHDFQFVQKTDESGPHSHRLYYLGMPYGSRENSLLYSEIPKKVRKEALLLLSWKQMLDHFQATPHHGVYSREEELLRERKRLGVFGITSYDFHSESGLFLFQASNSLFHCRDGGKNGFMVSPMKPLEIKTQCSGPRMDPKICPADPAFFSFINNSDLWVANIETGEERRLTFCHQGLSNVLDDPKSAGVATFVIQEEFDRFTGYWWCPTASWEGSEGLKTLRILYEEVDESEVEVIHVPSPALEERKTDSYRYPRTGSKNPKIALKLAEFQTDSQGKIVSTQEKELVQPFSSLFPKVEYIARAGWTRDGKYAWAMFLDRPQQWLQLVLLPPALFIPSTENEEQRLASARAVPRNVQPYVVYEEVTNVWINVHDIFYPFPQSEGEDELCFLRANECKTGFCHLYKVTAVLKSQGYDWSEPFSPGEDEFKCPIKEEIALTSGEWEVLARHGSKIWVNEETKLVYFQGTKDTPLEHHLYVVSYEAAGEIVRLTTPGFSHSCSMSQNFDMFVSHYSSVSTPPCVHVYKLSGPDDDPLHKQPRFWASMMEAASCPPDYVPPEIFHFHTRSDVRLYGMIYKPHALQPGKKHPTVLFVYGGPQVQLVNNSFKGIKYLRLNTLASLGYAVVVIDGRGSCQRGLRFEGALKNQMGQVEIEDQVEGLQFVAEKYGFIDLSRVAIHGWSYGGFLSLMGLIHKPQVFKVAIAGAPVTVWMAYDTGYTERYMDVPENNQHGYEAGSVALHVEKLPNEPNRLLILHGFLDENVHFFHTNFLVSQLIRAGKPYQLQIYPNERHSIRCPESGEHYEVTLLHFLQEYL
# How it was run: as §1
# [1] = target: dipeptidyl peptidase 7 (DPP 7) (Homo sapiens, UniProt Q9UHL4); assay: DPP 7 activity screening; assay type: biochemical; settings: N.I. = No Inhibition
# How it was run: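 Sample dissolved in DMSO, final DMSO kept at a level not affecting activity; tested at a single concentration from preliminary screening (e.g. 20 μg/mL). Dose-response data fitted to sigmoidal variable-slope model with bottom and top fixed at 0 and 100.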
# FAP = target: T4, FAP (Homo sapiens, UniProt Q12884); assay: FAP inhibition (Table 1); assay type: biochemical; settings: N.I. = No Inhibition
# T4 sequence (Q12884 1-760): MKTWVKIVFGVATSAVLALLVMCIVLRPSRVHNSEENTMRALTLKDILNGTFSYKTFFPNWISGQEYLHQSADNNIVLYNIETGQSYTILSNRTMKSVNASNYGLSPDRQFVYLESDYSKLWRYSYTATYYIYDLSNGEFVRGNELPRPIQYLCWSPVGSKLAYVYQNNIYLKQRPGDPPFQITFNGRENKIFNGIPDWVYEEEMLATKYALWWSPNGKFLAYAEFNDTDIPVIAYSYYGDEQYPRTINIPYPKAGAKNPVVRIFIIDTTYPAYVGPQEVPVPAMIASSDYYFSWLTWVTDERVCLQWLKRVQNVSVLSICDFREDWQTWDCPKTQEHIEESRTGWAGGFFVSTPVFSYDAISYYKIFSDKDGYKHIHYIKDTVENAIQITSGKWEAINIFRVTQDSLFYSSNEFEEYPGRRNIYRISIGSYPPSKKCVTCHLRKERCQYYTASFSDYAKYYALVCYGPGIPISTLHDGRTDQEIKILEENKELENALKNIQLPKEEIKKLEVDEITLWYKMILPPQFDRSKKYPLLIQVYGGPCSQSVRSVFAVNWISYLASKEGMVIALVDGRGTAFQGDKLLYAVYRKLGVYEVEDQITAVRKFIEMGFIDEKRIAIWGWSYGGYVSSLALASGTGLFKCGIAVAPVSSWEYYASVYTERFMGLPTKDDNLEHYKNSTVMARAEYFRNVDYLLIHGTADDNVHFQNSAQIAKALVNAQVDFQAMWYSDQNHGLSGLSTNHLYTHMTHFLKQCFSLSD
# human DPP IV = target: T5, human DPP IV (Homo sapiens, UniProt P27487); assay: DPP IV activity screening (Ala-Pro-AMC fluorescence); assay type: biochemical
# T5 construct: extracellular fragment of protease DPP IV (aa29-766); made in house; host or cells: baculovirus expression system Bac-to-Bac
# T5 sequence (P27487 29-766): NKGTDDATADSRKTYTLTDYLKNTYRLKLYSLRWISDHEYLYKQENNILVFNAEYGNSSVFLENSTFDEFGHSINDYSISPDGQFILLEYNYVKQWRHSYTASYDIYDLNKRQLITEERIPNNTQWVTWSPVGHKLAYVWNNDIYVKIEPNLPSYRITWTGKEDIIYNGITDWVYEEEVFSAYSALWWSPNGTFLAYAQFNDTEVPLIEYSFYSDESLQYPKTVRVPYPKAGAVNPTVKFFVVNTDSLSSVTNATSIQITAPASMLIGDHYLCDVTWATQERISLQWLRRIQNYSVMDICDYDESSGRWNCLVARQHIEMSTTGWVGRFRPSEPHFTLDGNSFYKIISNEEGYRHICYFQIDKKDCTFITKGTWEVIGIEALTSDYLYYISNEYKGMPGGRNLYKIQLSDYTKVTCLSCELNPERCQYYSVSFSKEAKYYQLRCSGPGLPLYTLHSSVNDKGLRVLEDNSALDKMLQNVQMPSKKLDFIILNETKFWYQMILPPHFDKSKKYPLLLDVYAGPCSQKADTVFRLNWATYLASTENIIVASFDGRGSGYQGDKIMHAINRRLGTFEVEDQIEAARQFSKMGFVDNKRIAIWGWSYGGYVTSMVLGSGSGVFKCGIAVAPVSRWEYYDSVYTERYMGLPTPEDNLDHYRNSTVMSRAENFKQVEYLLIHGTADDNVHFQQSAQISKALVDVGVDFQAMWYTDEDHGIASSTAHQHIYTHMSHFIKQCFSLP
# How it was run: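 DPP IV activity is taken as the linear rate of fluorescence change at 460 nm. Samples are dissolved in DMSO and screened at a single concentration (e.g. 20 μg/mL). Dose-response data are fit to a variable-slope sigmoidal model with bottom and top fixed at 0 and 100.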
# T1 sequence (P28843 37-760 limits assumed): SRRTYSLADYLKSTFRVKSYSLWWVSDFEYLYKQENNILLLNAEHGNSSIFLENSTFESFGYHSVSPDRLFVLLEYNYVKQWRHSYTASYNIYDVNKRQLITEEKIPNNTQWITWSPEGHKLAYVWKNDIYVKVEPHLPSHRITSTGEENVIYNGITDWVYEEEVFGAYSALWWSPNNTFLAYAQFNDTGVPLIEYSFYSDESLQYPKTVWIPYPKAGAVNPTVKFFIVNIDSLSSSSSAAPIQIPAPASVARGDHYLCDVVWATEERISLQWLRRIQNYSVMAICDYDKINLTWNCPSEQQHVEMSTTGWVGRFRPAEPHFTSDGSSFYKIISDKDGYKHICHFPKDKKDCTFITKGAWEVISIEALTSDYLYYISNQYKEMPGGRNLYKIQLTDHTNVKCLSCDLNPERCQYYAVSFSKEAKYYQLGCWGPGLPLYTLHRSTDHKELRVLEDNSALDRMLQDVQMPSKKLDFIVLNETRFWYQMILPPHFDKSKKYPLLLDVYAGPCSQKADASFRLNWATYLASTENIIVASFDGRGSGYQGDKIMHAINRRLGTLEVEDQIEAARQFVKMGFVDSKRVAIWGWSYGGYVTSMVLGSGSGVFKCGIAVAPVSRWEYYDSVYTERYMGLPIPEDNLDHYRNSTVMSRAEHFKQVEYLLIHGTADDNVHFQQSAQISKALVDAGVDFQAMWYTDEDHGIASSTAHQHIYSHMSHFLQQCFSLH
smiles,measurement,setting,value
N#Cc1ccccc1Cn1c(N2CCC[C@@H](N)C2)nc2cc(CO)sc2c1=O [DC291408],DPP IV activity of ICR mouse plasma after single dose (given as hypoglycemic ability in vivo),DPP IV,"comparable to that of Alogliptin (3 mg), and better than that of Vildagliptin (LAF237, 15 mg)"
CCOC(=O)CCNC(=O)c1csc2c(=O)n(Cc3ccccc3C#N)c(N3CCC[C@@H](N)C3)nc12 [DC291041],DPP IV activity of ICR mouse plasma after single dose (given as hypoglycemic ability in vivo),DPP IV,"comparable to that of Alogliptin (3 mg), and better than that of Vildagliptin (LAF237, 15 mg)"
N#Cc1ccccc1Cn1c(N2CCC[C@@H](N)C2)nc2c(CN3CCOCC3)csc2c1=O [DC291005],DPP IV activity of ICR mouse plasma after single dose (given as hypoglycemic ability in vivo),DPP IV,"comparable to that of Alogliptin (3 mg), and better than that of Vildagliptin (LAF237, 15 mg)"
N#Cc1ccccc1Cn1c(N2CCC[C@@H](N)C2)nc2cc(COCc3ccccc3)sc2c1=O [DC291402],"hypoglycemic ability in vivo, oral glucose tolerance test",normal ICR mouse,comparable to that of Alogliptin
same,DPP IV activity of ICR mouse plasma after single dose (given as hypoglycemic ability in vivo),DPP IV,"comparable to that of Alogliptin (3 mg), and better than that of Vildagliptin (LAF237, 15 mg)"
CC(=O)OCc1cc2nc(N3CCC[C@@H](N)C3)n(Cc3ccccc3C#N)c(=O)c2s1 [DC291405],DPP IV activity of ICR mouse plasma after single dose (given as hypoglycemic ability in vivo),DPP IV,"comparable to that of Alogliptin (3 mg), and better than that of Vildagliptin (LAF237, 15 mg)"
CCOC(=O)CNC(=O)c1csc2c(=O)n(Cc3ccccc3C#N)c(N3CCC[C@@H](N)C3)nc12 [DC291010],DPP IV activity of ICR mouse plasma after single dose (given as hypoglycemic ability in vivo),DPP IV,"comparable to that of Alogliptin (3 mg), and better than that of Vildagliptin (LAF237, 15 mg)"
N#Cc1ccccc1Cn1c(N2CCC[C@@H](N)C2)nc2c(C#N)csc2c1=O [DC291036],"hypoglycemic ability in vivo, oral glucose tolerance test",normal ICR mouse,comparable to that of Alogliptin
"N#Cc1ccccc1Cn1c(N2CCC[C@@H](N)C2)nc2c(C(=O)N3CCOCC3)csc2c1=O [Compound 69, (R)-2-((2-(3-aminopiperidin-1-yl)-7-(morpholine-4-carbonyl)-4-oxothieno-[3,2-d]pyrimidin-3(4H)-yl)methyl)-benzonitrile]",DPP 8 IC50,human DPP 8,N.I.
same,DPP 9 IC50,Human DPP 9,N.I.
same,DPP 7 IC50,[1],N.I.
same,FAP IC50,FAP,N.I.
same,IC50,human DPP IV,0.0321 µM
N#Cc1ccccc1Cn1c(N2CCC[C@@H](N)C2)nc2cc(C(=O)N3CCCCC3)sc2c1=O [DC291422],DPP IV activity of ICR mouse plasma after single dose (given as hypoglycemic ability in vivo),DPP IV,"comparable to that of Alogliptin (3 mg), and better than that of Vildagliptin (LAF237, 15 mg)"
"N#Cc1ccccc1Cn1c(N2CCC[C@@H](N)C2)nc2c(C(=O)O)csc2c1=O [Compound 44, (R)-2-(3-aminopiperidin-1-yl)-3-(2-cyanobenzyl)-4-oxo-3,4-dihydrothieno-[3,2-d]pyrimidine-7-carboxylic acid hydrochloride]",DPP 8 IC50,human DPP 8,N.I.
same,DPP 9 IC50,Human DPP 9,N.I.
same,IC50,[1],39.2 µM
same,FAP IC50,FAP,N.I.
same,IC50,human DPP IV,0.00976 µM
"N#Cc1ccccc1Cn1c(N2CCC[C@@H](N)C2)nc2cc(C(=O)N3CCS(=O)(=O)CC3)sc2c1=O [Compound 114, (R)-2-((2-(3-aminopiperidin-1-yl)-6-(1,1-dioxidothiomorpholine-4-carbonyl)-4-oxothieno[3,2-d]pyrimidin-3(4H)-yl)-methyl)benzonitrile]",IC50,human DPP 8,56.2 µM
same,IC50,Human DPP 9,307 µM
same,DPP 7 IC50,[1],N.I.
same,IC50,FAP,52.2 µM
same,IC50,human DPP IV,0.0222 µM
N#Cc1ccccc1Cn1c(N2CCC[C@@H](N)C2)nc2c(C(=O)NC3CCOCC3)csc2c1=O [DC291034],"hypoglycemic ability in vivo, oral glucose tolerance test",normal ICR mouse,comparable to that of Alogliptin
"CCOC(=O)CNC(=O)c1csc2c(=O)n(Cc3ccccc3C#N)c(N3CCC[C@@H](N)C3)nc12 [Compound 58, (R)-ethyl 2-(2-(3-aminopiperidin-1-yl)-3-(2-cyanobenzyl)-4-oxo-3,4-dihydrothieno[3,2-d]pyrimidine-7-carboxamido)acetate]",IC50,human DPP 8,14.3 µM
same,DPP 9 IC50,Human DPP 9,N.I.
same,DPP 7 IC50,[1],N.I.
same,FAP IC50,FAP,N.I.
same,IC50,human DPP IV,0.00872 µM
"N#Cc1ccccc1Cn1c(N2CCC[C@@H](N)C2)nc2c(C(=O)NC3CCCCC3)csc2c1=O [Compound 80, (R)-2-(3-aminopiperidin-1-yl)-3-(2-cyanobenzyl)-N-cyclohexyl-4-oxo-3,4-dihydrothieno[3,2-d]pyrimidine-7-carboxamide]",IC50,human DPP 8,25.7 µM
same,IC50,Human DPP 9,115 µM
same,DPP 7 IC50,[1],N.I.
same,IC50,FAP,28.7 µM
same,IC50,human DPP IV,0.026 µM
"N#Cc1ccccc1Cn1c(N2CCC[C@@H](N)C2)nc2c(C(=O)NCCO)csc2c1=O [Compound 60, (R)-2-(3-aminopiperidin-1-yl)-3-(2-cyanobenzyl)-N-(2-hydroxyethyl)-4-oxo-3,4-dihydrothieno[3,2-d]-pyrimidine-7-carboxamide]",IC50,human DPP 8,36.8 µM
same,IC50,Human DPP 9,110 µM
same,DPP 7 IC50,[1],N.I.
same,IC50,FAP,57.1 µM
same,IC50,human DPP IV,0.0133 µM
"N#Cc1ccccc1Cn1c(N2CCC[C@@H](N)C2)nc2c(CN3CCOCC3)csc2c1=O [Compound 55, (R)-2-((2-(3-aminopiperidin-1-yl)-7-(morpholinomethyl)-4-oxothieno-[3,2-d]pyrimidin-3(4H)-yl)methyl)-benzonitrile]",DPP 8 IC50,human DPP 8,N.I.
same,DPP 9 IC50,Human DPP 9,N.I.
same,DPP 7 IC50,[1],N.I.
same,FAP IC50,FAP,N.I.
same,IC50,human DPP IV,0.0178 µM
"CC(C)NC(=O)c1csc2c(=O)n(Cc3ccccc3C#N)c(N3CCC[C@@H](N)C3)nc12 [Compound 72, (R)-2-(3-aminopiperidin-1-yl)-3-(2-cyanobenzyl)-N-isopropyl-4-oxo-3,4-dihydrothieno[3,2-d]pyrimidine-7-carboxamide]",IC50,human DPP 8,30.1 µM
same,IC50,Human DPP 9,149 µM
same,DPP 7 IC50,[1],N.I.
same,IC50,FAP,39.4 µM
same,IC50,human DPP IV,0.0151 µM

# Source: patent US9045491B2, “Thienyl [3,2-D] pyrimidin-4-one compounds, preparation method, pharmaceutical compositions and use thereof” (SHANGHAI INSTITUTE OF MATERIA MEDICA, CHINESE ACADEMY OF …, priority 2011, dated 2015)
